The conditions of data set [1]: in vivo; cited from earlier work.
For data set [2] the following is noted: neutral pH; cited from earlier work.
A short description of data set [3]: QUESP measurement of proton exchange rate (ksw) of salicylic acid. It is filed as physicochemical. As to conditions: 25 mM, pH 7.0, QUESP.
Data set [4] is classed as physicochemical. As to conditions: 10 mM, pH 7.3-7.4, tsat = 3 sec, ω1 = 3.6 μT, 37° C.
For data set [5] the following is noted: 10 mM, pH 7.3-7.4, 37° C.
Data set [6] is classed as in vivo, mouse. As to conditions: mice, i.v., 9.3 ppm, 7.2 μT. An excerpt:
In particular, images consisting of a single axial slice containing both kidneys were collected. Because the B0 inhomogeneity was less than 200 Hz for these animals, a two-point collection scheme was used to limit the scan time, which is also allowed by the use of the 7.2 μT field strength. […] A Z-spectrum was acquired before injection. […] According to the initial results in FIGS. 4F-4G, the in vivo data collection scheme was modified in order to improve the kinetic data for compound 1 in the kidney. […] In vivo images were acquired on a Bruker Biospec 11.7 T horizontal bore MR scanner, with one axial slice of 1.5 mm thickness obtained through the medulla of both kidneys. […] The BALB/c mice (n=2) weighing 20-25 g (Charles River Laboratories, Wilmington, Mass.) were maintained under specific pathogen free conditions in the animal facility of Johns Hopkins University. […] Breath rate was monitored throughout in vivo MRI experiments using a respiratory probe. […] BALB/c mice weighing 20-25 g (Charles River Laboratories, Wilmington, Mass.) were maintained under specific pathogen free conditions in the animal facility of Johns Hopkins University. […] Breath rate was monitored throughout in vivo MRI experiments using a respiratory probe. A 60 μL, volume of a 0.25 M salicylic acid solution in PBS (pH 7) was slowly injected via a catheter into the tail vein. […]

Data set [7] in a line: QUESP/QUEST determination of ksw of anthranilic acid analogs. It is filed as physicochemical.
The format of data set [8] is physicochemical. As to conditions: 25 mM, pH 7.0-7.4, tsat=3 sec, ω1=3.6 μT, 37° C., 11.7 T. The method, then:
25 mM salicylic acid analogs (4-11) were made at pH 7.1-7.4 and tested with the phantom condition as described above. The Z-spectra were obtained by using Tsat=3 sec, ω1=3.6 μT at 37° C. […] CEST contrast was quantified by MTRasym=(S−Δω−S+Δω))/S0 after a voxel-by-voxel B0 correction, with characterized mean Z-spectra and MTRasym spectra for sample ROIs plotted and the typical results were summarized in FIG. 3A.

The conditions of data set [9]: pH 7.1-7.4, B1=3.6 μT, Tsat=3 s, 37° C., 11.7 T.
Data set [10] is described as follows: Screening of beta-hydroxy carboxylate analogs for CEST contrast (Table 4A).
The conditions of data set [11]: 48.5 tM iopamidol; cited from earlier work.

“And” between values parts separate entries of the source, which are not always exact repeats. Equal entries are not always repeated. Where two headings read alike, the source gives them in different places.

The term LD50 denotes the dose at which mortality reaches 50%. Consider `O=C(O)c1ccc(O)cc1O` [2,4-Dihydroxy benzoic acid], for which the LD50 in data set [1] is 800 mg/kg.
Consider `Nc1ccc(C(=O)O)c(O)c1` [4-amino salicylic acid], for which the LD50 in data set [1] is 4,250 mg/kg.
Consider `O=C(O)c1ccccc1O` [Compound 1, salicylic acid], for which the “exchange rate (previously reported)” value in data set [2] is 600 s⁻¹. In data set [3], the “proton exchange rate with water (ksw)” value stood at 1.2 ks^−1. In data set [4] (Table 1), the “Signal (ppm)” value was determined as 9.3 ppm. Also, the “kex” value in data set [5] (Table 1) was 400 s⁻¹. In data set [6], the “average CEST contrast over the whole kidney” value is 6.0±0.8% and 6%. Besides, the ksw was determined as 2.4 kHz in [7] (pH 6.5) and 0.4 kHz in data set [7] (pH 7.8). Also, in data set [8], the “chemical shift of CEST contrast (exchangeable proton) from water” value turned out to be 9.3 ppm. Further, the “CEST frequency / labile proton chemical shift from water” value in data set [9] amounted to 9.3 ppm.
For `O=C(O)c1ccccc1Nc1cccc(C(F)(F)F)c1` [Compound 5, flufenamic acid, reference compound], the LD50 in [1] is given as 150 mg/kg.
As for `O=C(O)c1cc([N+](=O)[O-])ccc1O` [Compound 14, 5-nitrosalicylic acid], the “Signal (ppm)” value in data set [4] (Table 2) was 10.3 ppm.
`O=C(O)c1cc([N+](=O)[O-])cc([N+](=O)[O-])c1O` [Compound 15, 3,5-Dinitrosalicylic acid]: in [4] (Table 2), the “Signal (ppm)” value was “None”.
As for `O=C(O)c1ccc(O)cc1O` [Compound 16], the “Signal (ppm)” value in data set [4] (Table 2) was 9.5 ppm. In addition, the “kex” value in data set [5] (Table 2) amounted to 460 s⁻¹.
For `Nc1ccc(C(=O)O)c(O)c1` [Compound 17] the same measures were 9.5 ppm and 384 s⁻¹.
For `O=C(O)c1ccc(C(=O)O)c(O)c1` [Compound 18] the same measures were 9.3 ppm and 420 s⁻¹.
Regarding `O=C(O)c1ccc([N+](=O)[O-])cc1O` [Compound 19, 2-hydroxy-4-nitrobenzoic acid], in [4] (Table 2), the “Signal (ppm)” value turned out to be 9.5 ppm. The “kex” value in data set [5] (Table 2) turned out to be 1500 s⁻¹.
For `O=C(O)c1c(O)ccc2ccccc12` [Compound 20, 2-hydroxy-l-naphthoic acid], in data set [4] (Table 3), the “Signal (ppm)” value was found to be 9.5 ppm. For the same compound, in [5] (Table 3), the “kex” value was 4400 s⁻¹.
`COc1cccc(O)c1C(=O)O` [Compound 21, 6-methoxysalicylic acid]: the “Signal (ppm)” value in data set [4] (Table 3) is on record as 9.0 ppm. Besides, the “kex” value in data set [5] (Table 3) was 4900 s⁻¹.
For `O=C(O)c1c(O)cccc1O` [Compound 22, 2,6-dihydroxybenzoic acid] the same measures were 9.3 ppm and 30 s⁻¹.
As to `Cc1cccc(C(=O)O)c1O` [Compound 23, 3-Methylsalicylic acid], the “Signal (ppm)” value in data set [4] (Table 4) is 9.5 ppm. In addition, in data set [5] (Table 4), the “kex” value came to 250 s⁻¹.
For `CC(C)(C)c1cc(C(=O)O)c(O)c(C(C)(C)C)c1` [Compound 24, 3,5-di-tert-butylsalicylic acid] the same measures were 9.3 ppm and 22 s⁻¹.
Taken in the same sequence, the figures for `O=C(O)c1cccc(F)c1O` [Compound 25] were 9.5 ppm and 750 s⁻¹.
Taken in the same sequence, the figures for `O=C(O)c1cc(Cl)cc(Cl)c1O` [Compound 26] were 10.3 ppm and 1070 s⁻¹.
On to `O=C(O)c1cc(Br)cc(Br)c1O` [Compound 27, 3,5-Dibromosalicylic acid], for which, in [4] (Table 4), the “Signal (ppm)” value is given as 10.5 ppm. The “kex” value in [5] (Table 4) was determined as 580 s⁻¹.
Take `O=C(O)c1cc(I)cc(I)c1O` [Compound 28]: the “Signal (ppm)” value in data set [4] (Table 4) came out at 10.8 ppm. Moreover, in data set [5] (Table 4), the “kex” value amounted to 310 s⁻¹.
For `O=C(O)c1ccc2ccccc2c1O` [Compound 29, 1-Hydroxy-2-naphthoic acid] the same measures were 10.5 ppm and 220 s⁻¹.
Take `O=C(O)c1ccc2cccnc2c1O` [Compound 30, 8-hydroxy-7-quinolinecarboxylic acid]: the “Signal (ppm)” value in data set [4] (Table 4) is reported as 10.3 ppm.
With `O=C(O)c1cccc(O)c1O` [Compound 31, 2,3-dihydroxybenzoic acid], the “Signal (ppm)” value in [4] (Table 4) is reported as 9.0 ppm.
On to `COc1cccc(C(=O)O)c1O` [Compound 32, 3-methoxysalicylic acid], for which the “Signal (ppm)” value in data set [4] (Table 4) is given as 9.3 ppm. Besides, the “kex” value in data set [5] (Table 4) turned out to be 480 s⁻¹.
Taken in the same sequence, the figures for `Nc1cccc(C(=O)O)c1O` [Compound 33, 3-aminosalicylic acid] were 9.0 ppm and 410 s⁻¹.
In the case of `O=Cc1cccc(C(=O)O)c1O` [Compound 34, 3-Formylsalicylic acid], the “Signal (ppm)” value in data set [4] (Table 4) worked out at 10.5 ppm. In addition, the “kex” value in [5] (Table 4) was found to be 510 s⁻¹.
Consider `O=C(O)c1cccc(C(=O)O)c1O` [Compound 35, 2-hydroxyisophthalic acid], for which the “Signal (ppm)” value in data set [4] (Table 4) is listed as 9.5 ppm.
On the same count and under the same terms, under `O=C(O)c1cccc([N+](=O)[O-])c1O` [Compound 36, 3-nitrosalicylic acid] stands 12.0 ppm.
Turning to `O=C(O)c1ccccc1Nc1ccccc1` [Compound 37], the “Signal (ppm)” value in [4] (Table 5) came out at 4.8 ppm. Besides, the “kex” value in data set [5] (Table 5) was determined as 670 s⁻¹.
Take `CS(=O)(=O)Nc1ccc(N)cc1C(=O)O` [Compound 38]: the “Signal (ppm)” value in data set [4] (Table 5) came to 6.3 ppm. Also, in data set [5] (Table 5), the “kex” value amounted to 550 s⁻¹.
For `CS(=O)(=O)Nc1ccccc1C(=O)O` [Compound 39] the same measures were 7.3 ppm and 470 s⁻¹.
Taken in the same sequence, the figures for `Cc1ccc(S(=O)(=O)Nc2ccccc2C(=O)O)cc1` [Compound 40] were 7.8 ppm and 440 s⁻¹.
For the compound `O=C(O)c1ccccc1NC(=O)C(F)(F)F` [Compound 41], the “Signal (ppm)” value in data set [4] (Table 5) is given as 9.3 ppm. In [5] (Table 5), the “kex” value turned out to be 190 s⁻¹.
For `O=C(O)c1cc(O)c(C(=O)O)cc1O` [Compound 42], the “Signal (ppm)” value in data set [4] (Table 6) stood at 8.3 ppm. Further, in data set [5] (Table 6), the “kex” value was 990 s⁻¹.
Taken in the same sequence, the figures for `O=C(O)c1cc(C(=O)O)c(O)cc1O` [Compound 43, 4,6-dihydroxyisophthalic acid] were 9.8 ppm and 460 s⁻¹.
Take `O=C(O)c1cc2ccccc2c(Cc2c(O)c(C(=O)O)cc3ccccc23)c1O` [Compound 44, Pamoic acid]: the “Signal (ppm)” value in data set [4] (Table 6) worked out at 9.5 ppm. For the same compound, in [5] (Table 6), the “kex” value turned out to be 130 s⁻¹.
As to `Cc1ccc(NS(C)(=O)=O)c(C(=O)O)c1` [Entry 60], in data set [10] (Concentration 25 mM), the “Signal (ppm)” value came out at 7.0 ppm and the “kex” value was found to be 500 s⁻¹.
As for `CS(=O)(=O)Nc1ccc(N)cc1C(=O)O` [Entry 61], in data set [10] (Concentration 10 mM), the “Signal (ppm)” value is 6.3 ppm and the “kex” value came to 550 s⁻¹.
As for `Cc1ccc(S(=O)(=O)Nc2ccccc2C(=O)O)cc1` [Entry 62], in data set [10] (Concentration 10 mM), the “Signal (ppm)” value worked out at 7.8 ppm and the “kex” value stood at 440 s⁻¹.
As for `O=C(O)c1ccccc1NS(=O)(=O)C(F)(F)F` [Entry 63], the “Signal (ppm)” value in data set [10] (Concentration 25 mM) is on record as “None”.
For the compound `O=C(O)c1ccccc1N/N=C\c1ccccc1` [Entry 64], in data set [10] (Concentration 25 mM), the “Signal (ppm)” value is “None”.
Take `C[C@H](O)C(=O)Nc1c(I)c(C(=O)NC(CO)CO)c(I)c(C(=O)NC(CO)CO)c1I` [iopamidol]: the “optimal time to observe the contrast” value in [11] is reported as 45 min.

The values are drawn from patent publication US10188754B2, “Compositions and methods for chemical exchange saturation transfer (CEST) based magnetic resonance imaging (MRI)” (THE JOHNS HOPKINS UNIVERSITY, priority 2013, dated 2019).
